{
  "source": "patent US12257253B2",
  "about": "“Triamterene or nolatrexed for use in the treatment of phenylketonuria” (SOM INNOVATION BIOTECH, S.A., priority 2019, dated 2025)",
  "key": {"wild-type PAH [1]": {"biological_target": "T1, wild-type PAH (Homo sapiens (Human), UniProt P00439)", "T1 sequence (P00439 whole entry)": "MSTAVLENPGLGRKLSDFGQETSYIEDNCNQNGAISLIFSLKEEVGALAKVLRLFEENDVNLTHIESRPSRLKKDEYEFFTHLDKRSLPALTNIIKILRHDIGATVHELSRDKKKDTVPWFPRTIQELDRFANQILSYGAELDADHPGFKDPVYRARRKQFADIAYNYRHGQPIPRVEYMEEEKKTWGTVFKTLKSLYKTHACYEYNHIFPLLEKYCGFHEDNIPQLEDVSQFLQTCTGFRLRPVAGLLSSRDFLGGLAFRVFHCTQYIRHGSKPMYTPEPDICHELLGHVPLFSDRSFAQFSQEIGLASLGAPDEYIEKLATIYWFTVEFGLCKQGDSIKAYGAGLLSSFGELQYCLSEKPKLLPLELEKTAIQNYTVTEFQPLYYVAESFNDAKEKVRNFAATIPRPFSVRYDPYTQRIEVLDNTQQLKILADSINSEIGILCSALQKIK", "test": "Phenylalanine hydroxylase residual protein amount (dot blot, COS-7 lysates)", "assay_type": "cell-based", "conditions": "COS-7 cells, compound 10 μM (sepiapterin 5 μM), 48 h; read-out: PAH protein level (immune blot signal) WT PAH Mean", "protocol": "(§1) 3. Phenylalanine Hydroxylase Residual Protein Amount\n(§2) The analysis of the residual PAH protein amount was based on the method described in Gersting S. W. et al., Human Molecular Genetics, 2010, 19(10), 2039-2049 with modifications.\n(§3) Detection of the residual PAH protein amount was performed as a dot blot using the lysates obtained from the cell culture where transiently transfected COS-7 cells (with wild-type PAH or PAH variant) were exposed for 48 h to compounds. The experiment was carried out from the same samples as used for measuring enzyme activities.\n(§4) 2 μl of the lysate were dropped onto the nitrocellulose membrane. The membrane was allowed to air dry at room temperature for 30 min followed by 40 min blocking in 5% milk in TBS-Tween (room temperature). The membrane was incubated with the mouse monoclonal primary antibody specific for PAH (Millipore, Cat. No. MAB5278, 1:1000 dilution in 5% milk in TBS-Tween) for overnight at 4° C. Next, the membrane was washed (3×10 min in TBS-Tween) and incubated with the secondary HRP-conjugated antibody (anti-mouse antibody; Santa Cruz Biotechnology, Inc., Cat. No. sc-2005; 1:1000 dilution in 5% milk in TBS-Tween) followed by thorough washing in TBS-Tween (3×10 min) and distilled water (1×10 min). Blots were visualized with Pierce™ ECL substrate (ThermoFisher Scientific, Cat No. 32106) and chemiluminescence was monitored with a DIANA III Imaging system or ChemiDoc™ MP Imaging System (BioRad). To analyze the compound effect on the PAH protein amount densitometry analysis was performed using ImageJ Software.\n(§5) The effect of compound on PAH protein amount was calculated from triplicates. As for determination of the enzyme activity the background of the not transfected cells (NT) was subtracted from the transfected cells (NCC or compound treated). In the next step delta of the NCC versus compound treated cells was calculated. Residual protein amount greater than 100% represents an increase in the stability of the enzyme with respect to NCC."}, "Arg261Gln (R261Q) PAH [2]": {"biological_target": "T2, Arg261Gln (R261Q) PAH (Homo sapiens (Human), UniProt P00439, R261Q)", "T2 sequence (P00439 whole entry R261Q)": "as the sequence (P00439 whole entry) above, with R261Q counted along it", "test": "Phenylalanine hydroxylase residual protein amount (dot blot, COS-7 lysates)", "assay_type": "cell-based", "conditions": "COS-7 cells, compound 10 μM (sepiapterin 5 μM), 48 h; read-out: PAH protein level (immune blot signal) R261Q PAH Mean", "protocol": "as §1, §2, §3, §4, §5"}, "wild-type PAH [3]": {"biological_target": "T1, wild-type PAH", "test": "Thermal stability shift assay (DSF)", "assay_type": "binding", "conditions": "compound 30 μM (BH4 43 μM)", "excerpt": "(§6) 1. Thermal Stability Shift Assay\n(§7) Thórólfsson et al. (Biochemistry, 2002, 41(24), 7573-7585) describe that the thermal denaturation of hPAH occurs in three stages: (i) unfolding of the four regulatory domains, which is responsible for the low-temperature calorimetric transition (ii) unfolding of two (out of the four) catalytic domains, which is responsible for the high-temperature transition; and (iii) irreversible protein denaturation. The most important domain for stabilization is the regulatory domain.\n(§8) Thus, to test the compound effect on thermal stability of the target protein a thermal stability shift assay (also called differential scanning fluorimetry (DSF)) was performed [Niesen F. H. et al., Nat Protoc., 2007, 2(9), 2212-2221; Gersting S. W. et al., Human Molecular Genetics, 2010, 19(10), 2039-2049; and Gersting S. W. et al., J. Biol Chem. 2010, 285(40), 30686-30697]. DSF monitors thermal unfolding of proteins in the presence of a fluorescent dye (SYPRO Orange; λexc=465 nm, λem=610 nm) and was performed using a real-time PCR instrument (Applied BioSystems 7000HT Fast Real-Time PCR System). Compounds that increase the midpoints of thermal denaturation (Tm) are considered to bind and stabilize the protein.\n(§9) In brief, purified wild-type or Arg261Gln (which is the most frequent mutation responsive to BH4) PAH proteins (diluted in 20 mM NaHEPES, pH 7.0 and 200 mM NaCl, 2 mM DTT to 2 mg/ml) were used at a final concentration of 0.2 mg/ml protein per sample. The compounds were tested at a final concentration of 30 μM. A no compound control (NCC) was used according to the compound solvent at a final concentration of 2% (H2O, DMSO, ethanol, methanol). As a positive control we used the natural cofactor 6R-L-erythro-5,6,7,8-tetrahydrobiopterin (BH4, CAS 69056-38-8) stabilized in 100 mM dithiothreitol (DTT), in a final concentration of 43 μM. To exclude unspecific effects of the compound to the dye, a no protein control (NPC) was added (buffer, compound, dye). The measurement was performed in duplicates and samples were denatured by scanning a temperature range of 20 to 75° C. at a scan rate of 0.5° C./min.\n(§10) The data was normalized and the respective Tm values were calculated by bi-phasic equation to determine temperatures at which half denaturation occurred (Software GraphPadPrism). To identify compound specific effects on the thermal stability of the target protein, the reference Tm (NCC) was used to calculate the temperature shift between compound treated and not treated protein (Tm−TmNCC), from duplicates, to provide transition midpoints shifts (ΔTm1 and ΔTm2). Tm1 and Tm2 are the two different transition mid point of the unfolding process of the protein as the tetrameric protein PAH unfolds in two steps due to its domains. A shift in Tm1 of 2° C. reflects a relevant increase in thermal stability on the regulatory domain and, thus, is considered a positive result."}, "Arg261Gln (R261Q) PAH [4]": {"biological_target": "T2, Arg261Gln (R261Q) PAH", "test": "Thermal stability shift assay (DSF)", "assay_type": "binding", "conditions": "compound 30 μM (BH4 43 μM)", "excerpt": "as §6, §7, §8, §9, §10"}, "[5]": {"conditions": "shift of transition midpoint 1 vs NCC"}, "[6]": {"conditions": "shift of transition midpoint 2 vs NCC"}},
  "data": [
    {"smiles": "Nc1nc(N)c2nc(-c3ccccc3)c(N)nc2n1", "note": "[Triamterene, 2,4,7-triamino-6-phenylpteridine]", "values": [
      {"measurement": "PAH protein level (% of control) at 10 µM", "setting": "wild-type PAH [1]", "value": 110, "unit": "%"},
      {"measurement": "PAH protein level (% of control) at 10 µM", "setting": "Arg261Gln (R261Q) PAH [2]", "value": 130, "unit": "%"},
      {"measurement": "ΔTm1 WT PAH", "setting": "wild-type PAH [3]; [5]", "value": 0.33, "unit": "°C"},
      {"measurement": "ΔTm2 WT PAH", "setting": "wild-type PAH [3]; [6]", "value": 3.23, "unit": "°C"},
      {"measurement": "ΔTm1 R261Q PAH", "setting": "Arg261Gln (R261Q) PAH [4]; [5]", "value": 2.21, "unit": "°C"},
      {"measurement": "ΔTm2 R261Q PAH", "setting": "Arg261Gln (R261Q) PAH [4]; [6]", "value": 2.82, "unit": "°C"}
    ]}
  ]
}
